Entries after “also recorded” stand apart in the source; their conditions may differ.
Legend:
zebrafish embryos = assay: Gross morphology / development of zebrafish embryos exposed to CDK inhibitors; settings: 50 μM, starting at 18 hpf, observed by 40 hpf
Experimental: (C) In vivo treatment of Tg:Pomc-Pttg; Pomc-eGFP embryos with different small molecule CDK inhibitors (50 μM) or 0.2% DMSO as control from 18-40 hpf. 100-150 embryos were treated with each compound at a time. Representative images of live embryos are shown with gross morphology (right panels) and pituitary Pomc-GFP positive cells at higher magnification (left panels) at 40 hpf. […] (D) Relative expression of pituitary Pomc-eGFP fluorescence were analyzed using Velocity 5.2 (Improvision) (mean±SE of relative expression, n=7 randomly picked embryos from 100-150 embryos of each group). […] Results represent one of three similar experiments. Scale bar, 50 μm. *, p<0.02; **, p<0.000005.
Tg:Pomc-Pttg; POMC-eGFP double transgenic embryos were exposed to each compound added to the embryo culture medium.
Dexamethasone (Sigma) was dissolved in distilled water, R-roscovitin (Selleck Chemicals), flavopiridol (Selleck Chemicals), PD0332991 (Selleck Chemicals), olomoucine (Cayman Chemical Co.), and CAY10578 (Cayman Chemical Co.) were dissolved in 0.2% DMSO at a stock concentration of 1 mM, and diluted in fish medium immediately before adding to live embryos at the stages indicated.

[1] = system: pituitary POMC cells overexpressing zPttg; assay: In vivo treatment of Tg:Pomc-Pttg; POMC-eGFP zebrafish embryos with CDK inhibitors, pituitary POMC-eGFP fluorescence; settings: for reduction in pituitary POMC-eGFP expression compared with controls: 50 μM in embryo medium, control 0.2% DMSO
Experimental: (§1) Results represent one of three similar experiments.
(§2) WT and transgenic embryos were examined at various developmental stages under a fluorescein isothiocyanate filter on an Axioplan-2 microscope (Carl Zeiss). Live embryo images were generated with an Axiocam video system (Carl Zeiss). Fluorescence intensity of POMC-GFP-positive cells was measured by the area of interest function in Openlab software (Improvision). For confocal imaging, images were captured in a Z-series by using a TCS SP confocal microscope (Leica Microsystems). GFP was detected at a spectral range from 507 to 550 nm, RFP from 585 to 690 nm, and DAPI from 460 to 480 nm. Images were prepared using Leica LCS lite, Volocity 5.2 (Improvision), and Photoshop 7.0 (Adobe). Pituitary GFP and RFP intensity and area were measured using Volocity 5.2 (Improvision). Lipid Staining Liver cryosections were stained with oil redO (Sigma-Aldrich) per manufacturer's protocol. Lipid staining was scored based upon area distribution (>50% positive cells, 2 points; <50% but >10%, 1 point; <10%, 0 points) and intensity [strong, large (size of cell) lipid droplets, 2 points; weak, small (smaller than cell size) lipid droplets, 1 point; negative, 0 points].

AtT20 cells [2] = assay: ACTH radioimmunoassay of AtT20 culture medium; settings: AtT20 cells vs vehicle
[3] = system: mouse pituitary ACTH-secreting tumor AtT20 cell line; assay: Wst-1 cell proliferation assay in AtT20 cells; settings: 1−2×10^−5 M
[4] = system: AtT20 corticotroph tumor xenografts; assay: AtT20 corticotroph tumor xenograft in athymic nude mice, tumor growth and tumor protein expression; settings: 150 mg/kg oral gavage twice daily
Experimental: (§3) Athymic nude mice were subcutaneously inoculated with corticotroph tumor AtT20 cells (1×10^5 cells). […] (D) Blood was collected from each animal for measurement of plasma ACTH and serum corticosterone levels.
Animal experiments were performed in accordance with Cedars-Sinai Institutional Animal Care and Use committee guidelines. Mouse corticotroph tumor AtT20 cells (−1×10^5) were inoculated s.c. into 6-wk-old female nu/nu mice. […] After 3 wk of treatment, mice were killed by CO2 inhalation, and tumors were dissected, weighted, and snapfrozen for further analysis.
Protein samples were prepared in RIPA buffer (Sigma), separated on NuPAGE Novex Bis-Tris Gels (Invitrogen), and transferred onto PVDF membrane (Millipore) before blotting with primary antibody [cyclin E, 1:500 (Abcam); PTTG, 1:1,000 (Abcam); β-actin, 1:5,000 (Sigma); and p21, 1:1,000, p27, 1:500, p57, 1:1,000, pRb821, 1:1,000 (Santa Cruz Biotechnology)] at 4° C. overnight. After washes with 0.5% Tween-20 in Tris-buffered saline solution, membranes were incubated with horseradish peroxidaselinked secondary antibody (GE Healthcare) and developed using ECL Western blotting detection reagents (GE Healthcare).

[5] = system: AtT20 corticotroph tumor xenografts; assay: Plasma ACTH and serum corticosterone in AtT20 xenograft-bearing nude mice; settings: 150 mg/kg oral gavage twice daily, three weeks
Excerpt: as §3
Mouse corticotroph tumor AtT20 cells (−1×10^5) were inoculated s.c. into 6-wk-old female nu/nu mice. […] After 3 wk of treatment, mice were killed by CO2 inhalation, and tumors were dissected, weighted, and snapfrozen for further analysis.

[6] = system: pituitary lactotrophs (Prl-RFP); assay: In vivo treatment of Tg:Pomc-Pttg; Prl-RFP zebrafish embryos, pituitary Prl-RFP fluorescence; settings: 50 μM, 18 to 48 hpf
Experimental: as §1, §2

AtT20 cells [7] = assay: Senescence (β-galactosidase expression) in AtT20 cells; settings: 10 μM, 48 hours
[8] = Insulin tolerance test in adult zebrafish; format: in vivo; settings: 0.1 unit/100 mg
Experimental: Zebrafish glucocorticoid steroidogenic cells are arranged as epithelial cell layers (arrowheads) in association with the renal head posterior cardinal vein (PCV) 28. […] Glucose tolerance tests were performed in 72 Tg:pomc-pttg and WT fish. Zebrafish was given ad lib feeding of regular diet for one hour (grey column) after 16 hours of fasting. Blood glucose was measured at different time points after re-feeding. Glucose levels are presented as mean±SE (AUC, p<0.0001). (C) Insulin tolerance tests in Tg:pomc-pttg and WT fish. […] (D) Oil red O(ORO) staining of liver sections reveal hepatic lipid accumulation in Tg:Pomc-pttg transgenics. (E) Area distribution and intensity of hepatic ORO staining were scored (mean±SE, *, p<0.01). […] Top, Tg:Pomc-pttg zebrafish (Tg) with gross pericardial fluid accumulation (arrow) compared with wildtype (WT) at 24 months. […]
To determine the metabolic impact of hypercortisolism in Tg:Pomc-Pttg zebrafish, adult Tg:Pomc-Pttg and WT fish were subjected to 16 hour fasting followed by ad libitum feeding of regular diet for one hour. […] Because teleost fish are glucose intolerant due to blunted peripheral responses to insulin^29, and glucocorticoids induce insulin resistance in mammals, insulin sensitivity was assessed by testing blood glucose responses to intraperitoneally administered insulin. […]

[9] = 18-40 hpf, Tg:Pomc-Pttg, POMC-eGFP embryos

## Cn1cnc2c(NCc3ccccc3)nc(NCCO)nc21 [olomoucine]
Zebrafish embryos
  embryonic growth / development of treated embryos: no apparent growth defect
[1]; [9]
  reduction in pituitary POMC-eGFP expression compared with controls: approximately 20%
[1]; 50 μM, 18-40 hpf, n=7, control 1.0±0.08
  relative expression of pituitary POMC-eGFP fluorescence (mean±S.E.): 0.8±0.07

## CC[C@H](CO)Nc1nc(NCc2ccccc2)c2ncn(C(C)C)c2n1 [R-roscovitine]
AtT20 cells [2]
  ACTH concentration in culture medium (RIA): decreased
[3]; at 24 and 48 hours
  number of viable cells (Wst-1): decreased number of viable cells
[3]; by 24 hours
  cell number: decreased cell number
[4]; 3 weeks
  numbers of PCNA and ACTH co-expressing cells in tumors: decreased
[4]; 5 days per week, 3 weeks
  tumor volumes: decreased
[4]; 5 days per week, three weeks
  weight reduction of dissected tumor xenografts: ~50%
[4]; 5 days per week, three weeks, vehicle 40.0±4.7 mg, n=13-14
  weight of dissected tumor xenografts (mean±S.E.): 21.0 ± 2.6 mg
[4]; three weeks
  ACTH protein expression in tumor specimens (Western-blot and immunohistochemistry): suppressed
  PCNA protein expression in tumor specimens (Western-blot and immunohistochemistry): suppressed
Zebrafish embryos
  embryonic growth / development of treated embryos: no apparent growth defect
[1]; [9]
  reduction in pituitary POMC-eGFP expression compared with controls: approximately 40%
[1]; 50 μM, 18 to 48 hpf, Tg:Pomc-Pttg, POMC-eGFP embryos
  reduction of POMC-eGFP expression compared with control: greater than 50%
[5]
  reduction in plasma ACTH levels: > 50%
  reduction in serum corticosterone levels: ~50%
[6]
  effect on Prl-RFP expression: no effect
AtT20 cells [7]
  β-galactosidase expression (senescence): increased

## O=C1NCCc2[nH]c(-c3ccncc3)cc21 [CAY10572]
[1]; 50 μM, 18-40 hpf, Tg:Pomc-Pttg, POMC-eGFP embryos
  change in pituitary POMC-eGFP expression compared with controls: no significant change

## insulin: insulin injected intraperitoneally for insulin tolerance test
[8]; Tg:Pomc-Pttg fish, up to 90 minutes after injection
  blood glucose response to intraperitoneal insulin: no significant change
[8]; WT fish, 30 minutes after injection
  blood glucose response to intraperitoneal insulin: brisk hypoglycemic response

## CN1CC[C@@H](c2c(O)cc(O)c3c(=O)cc(-c4ccccc4Cl)oc23)[C@H](O)C1 [flavopiridol, 2-(2-chlorophenyl)-5,7-dihydroxy-8-((3S,4S)-3-hydroxy-1-methylpiperidin-4-yl)-4H-chromen-4-one]
Zebrafish embryos
  embryonic growth / development of treated embryos: early developmental defect; also recorded: retarded early embryonic development

Source: patent US20130171073A1 (CEDARS-SINAI MEDICAL CENTER, priority 2010, published 2013)
